From US20120101100A1 (priority 2008, published 2012)
Read-outs that look alike come from different tables or passages of the source.

Target: S. aureus GyrB ATPase (Staphylococcus aureus, UniProt P0A0K8)
Experiment: S. aureus (SAU) GyrB ATPase inhibition, malachite green phosphate detection (E. coli GyrA + S. aureus GyrB)
Format: biochemical
Conditions: read-out: S. aureus (SAU) GyrB ATPase % Inhibition
How it was run: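 Phosphate from ATP hydrolysis (500 μM ATP) read as malachite green/molybdate absorbance at 650 nm after acid quench. Reaction: 1.25 nM S. aureus GyrB plus 1.25 nM E. coli GyrA, sheared DNA, Hepes pH 7.5 with Mg2+. IC50 fitted over 10 concentrations, normalised to DMSO (2%) and novobiocin (2 μM) controls.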

[1] = compound concentration of 1.0 μM unless otherwise noted, average value where assay was carried out more than once

Sequence of S. aureus GyrB ATPase (P0A0K8 whole entry): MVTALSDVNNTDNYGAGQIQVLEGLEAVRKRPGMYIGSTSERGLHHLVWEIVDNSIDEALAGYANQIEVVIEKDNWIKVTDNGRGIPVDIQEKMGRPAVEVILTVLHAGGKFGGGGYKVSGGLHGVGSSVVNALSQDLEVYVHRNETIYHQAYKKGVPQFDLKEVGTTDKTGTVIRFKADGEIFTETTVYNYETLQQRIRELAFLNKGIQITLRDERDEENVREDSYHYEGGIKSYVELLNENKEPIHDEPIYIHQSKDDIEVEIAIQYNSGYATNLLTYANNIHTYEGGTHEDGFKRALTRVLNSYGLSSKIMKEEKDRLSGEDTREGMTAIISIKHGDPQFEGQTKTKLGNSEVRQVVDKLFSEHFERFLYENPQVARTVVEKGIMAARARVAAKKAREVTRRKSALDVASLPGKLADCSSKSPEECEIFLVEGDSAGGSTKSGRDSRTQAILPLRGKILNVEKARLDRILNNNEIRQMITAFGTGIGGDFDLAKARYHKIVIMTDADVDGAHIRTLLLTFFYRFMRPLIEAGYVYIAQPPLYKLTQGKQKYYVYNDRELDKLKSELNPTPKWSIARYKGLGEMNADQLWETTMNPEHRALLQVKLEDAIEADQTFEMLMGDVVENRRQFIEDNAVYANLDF
Sequence of S. aureus GyrB ATPase (P0AES4 whole entry, further chain): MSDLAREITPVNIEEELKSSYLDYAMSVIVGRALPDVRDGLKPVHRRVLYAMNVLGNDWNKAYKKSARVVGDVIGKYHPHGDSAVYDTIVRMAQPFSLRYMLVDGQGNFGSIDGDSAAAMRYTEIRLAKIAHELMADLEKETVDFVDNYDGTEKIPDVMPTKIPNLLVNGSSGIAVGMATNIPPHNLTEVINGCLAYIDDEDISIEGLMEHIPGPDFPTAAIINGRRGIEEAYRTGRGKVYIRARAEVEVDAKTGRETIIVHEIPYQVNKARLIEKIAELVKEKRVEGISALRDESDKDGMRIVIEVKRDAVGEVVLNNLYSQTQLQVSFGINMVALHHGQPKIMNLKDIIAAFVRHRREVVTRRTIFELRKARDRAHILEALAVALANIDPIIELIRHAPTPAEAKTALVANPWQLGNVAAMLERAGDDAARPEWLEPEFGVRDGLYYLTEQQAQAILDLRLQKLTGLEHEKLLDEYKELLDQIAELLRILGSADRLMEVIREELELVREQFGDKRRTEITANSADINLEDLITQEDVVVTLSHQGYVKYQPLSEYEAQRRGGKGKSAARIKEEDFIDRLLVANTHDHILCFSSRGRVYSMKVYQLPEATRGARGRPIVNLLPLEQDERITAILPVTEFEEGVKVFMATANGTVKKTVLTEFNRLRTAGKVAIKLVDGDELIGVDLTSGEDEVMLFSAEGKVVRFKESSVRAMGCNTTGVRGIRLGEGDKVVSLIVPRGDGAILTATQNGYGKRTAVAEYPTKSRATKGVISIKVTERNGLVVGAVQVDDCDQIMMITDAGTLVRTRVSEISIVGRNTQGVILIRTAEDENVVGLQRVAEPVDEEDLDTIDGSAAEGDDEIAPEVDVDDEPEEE

CCNC(=O)Nc1cc(-c2nc(C(F)(F)F)cs2)c(-c2cncc(-c3nnc(C(C)O)o3)c2)cn1 (stereo not shown) [Example 275, 1-ethyl-3-(5′-(5-(1-hydroxyethyl)-1,3,4-oxadiazol-2-yl)-4-(4-(trifluoromethyl)thiazol-2-yl)-3,3′-bipyridin-6-yl)urea]
inhibition at 1 µM [1]: 98%

CCNC(=O)Nc1cc(-c2ccc(N3CCOCC3)cc2)c(-c2cncc(-c3n[nH]c(=O)o3)c2)cn1 [Example 108, 1-Ethyl-3-(4-(4-morpholinophenyl)-5′-(5-oxo-4,5-dihydro-1,3,4-oxadiazol-2-yl)-3,3′-bipyridin-6-yl)urea]
inhibition at 1 µM [1]: 103%

CCNC(=O)Nc1cc(-c2nc(C(F)(F)F)cs2)c(-c2cc(-c3n[nH]c(=O)o3)cnc2OCCC2CCCN2C)cn1 (stereo not shown) [Example 224]
inhibition at 1 µM [1]: 94%

CCNC(=O)Nc1cc(-c2nc(C(F)(F)F)cs2)c(-c2cncc(-c3nn(CCOC)c(=O)o3)c2)cn1 [Example 160]
inhibition at 1 µM [1]: 98%

CCNC(=O)Nc1cc(-c2nc(-c3ccccc3)cs2)c(-c2cncc(-c3n[nH]c(=O)o3)c2)cn1 [Example 11, 1-ethyl-3-(5′-(5-oxo-4,5-dihydro-1,3,4-oxadiazol-2-yl)-4-(4-phenylthiazol-2-yl)-3,3′-bipyridin-6-yl)urea]
inhibition at 1 µM [1]: 107%

CCNC(=O)Nc1cc(-c2nc(C(F)(F)F)c(C(=O)NC3CC3)s2)c(-c2cncc(-c3nnc(C)o3)c2)cn1 [Example 66, N-cyclopropyl-2-(6-(3-ethylureido)-5′-(5-methyl-1,3,4-oxadiazol-2-yl)-3,3′-bipyridin-4-yl)-4-(trifluoromethyl)thiazole-5-carboxamide]
inhibition at 1 µM [1]: 93%

CCNC(=O)Nc1cc(-c2nc(C(F)(F)F)cs2)c(-c2cncc(-c3cnn(C)c3)c2)cn1 [Example 24, 1-Ethyl-3-(5′-(1-methyl-1H-pyrazol-4-yl)-4-(4-(trifluoromethyl)thiazol-2-yl)-3,3′-bipyridin-6-yl)urea]
inhibition at 1 µM [1]: 109%

CCNC(=O)Nc1cc(-c2nc(C(F)(F)F)cs2)c(-c2cncc(C#N)c2)cn1 [Example 2, 1-(5′-cyano-4-(4-(trifluoromethyl)thiazol-2-yl)-3,3′-bipyridin-6-yl)-3-ethylurea]
inhibition at 1 µM: 88%

CCNC(=O)Nc1cc(-c2nc(C(F)(F)F)cs2)c(-c2cnc(C#N)nc2)cn1 [Example 126]
inhibition at 1 µM [1]: 102%

CCNC(=O)Nc1cc(-c2nc(C(F)(F)F)cs2)c(-c2cncc(-c3nnc(C(=O)N(C)C)o3)c2)cn1 [Example 274, 5-(6′-(3-ethylureido)-4′-(4-(trifluoromethyl)thiazol-2-yl)-3,3′-bipyridin-5-yl)-N,N-dimethyl-1,3,4-oxadiazole-2-carboxamide]
inhibition at 1 µM [1]: 99%

CCNC(=O)Nc1cc(-c2nc(C(F)(F)F)cs2)c(-c2cncc(-c3nnc(COCCOC)o3)c2)cn1 [Example 278, 1-ethyl-3-(5′-(5-((2-methoxyethoxy)methyl)-1,3,4-oxadiazol-2-yl)-4-(4-(trifluoromethyl)thiazol-2-yl)-3,3′-bipyridin-6-yl)urea]
inhibition at 1 µM [1]: 68%

CCNC(=O)Nc1cc(-c2nc(C(F)(F)F)cs2)c(-c2cc(-c3nnc(C)o3)cnc2OCCN(CC)CC)cn1 [Example 115, 1-(2′-(2-(diethylamino)ethoxy)-5′-(5-methyl-1,3,4-oxadiazol-2-yl)-4-(4-(trifluoromethyl)thiazol-2-yl)-3,3′-bipyridin-6-yl)-3-ethylurea]
inhibition at 1 µM [1]: 96%

CCNC(=O)Nc1cc(-c2nc(C(F)(F)F)cs2)c(-c2cc(-c3n[nH]c(=O)o3)cnc2OC2CCCC2)cn1 [Example 217]
inhibition at 1 µM [1]: 95%

CCNC(=O)Nc1cc(-c2nc(C(F)(F)F)cs2)c(-c2cncc(-c3nnc(C(F)F)[nH]3)c2)cn1 [Example 256, 1-(5′-(5-(difluoromethyl)-4H-1,2,4-triazol-3-yl)-4-(4-(trifluoromethyl)thiazol-2-yl)-3,3′-bipyridin-6-yl)-3-ethylurea]
inhibition at 1 µM [1]: 103%

CCNC(=O)Nc1cc(-c2nc(C(F)(F)F)cs2)c(-c2cncc(-c3nnc(NCCOC)o3)c2)cn1 [Example 153]
inhibition at 1 µM [1]: 100%

CCNC(=O)Nc1cc(-c2nnc(-c3ccccc3)o2)c(-c2ccnc(-c3n[nH]c(=O)o3)c2)cn1 [Example 192]
inhibition at 1 µM [1]: 101%

CCNC(=O)Nc1cc(-c2nc(C(F)(F)F)cs2)c(-c2cncc(-c3nn(C(C)=O)c(=O)o3)c2)cn1 [Example 161]
inhibition at 1 µM [1]: 97%

CCCNC(=O)Nc1cc(-c2nc(C(F)(F)F)cs2)c(-c2cc(-c3nnc(C)o3)cnc2OCCN2CCCC2)cn1 [Example 168]
inhibition at 1 µM [1]: 69%

CCNC(=O)Nc1cc(-c2cnn(CC(C)C)c2)c(-c2cncc(-c3n[nH]c(=O)o3)c2)cn1 [Example 107, 1-Ethyl-3-(4-(1-isobutl-1H-pyrazol-4-yl)-5′-(5-oxo-4,5-dihydro-1,3,4-oxadiazol-2-yl)-3,3′-bipyridin-6-yl)urea]
inhibition at 1 µM [1]: 97%

CCNC(=O)Nc1cc(-c2nc(C(F)(F)F)c(C(=O)NC3CCCC3)s2)c(-c2cncc(-c3n[nH]c(=O)o3)c2)cn1 [Example 67, N-cyclopentyl-2-(6-(3-ethylureido)-5′-(5-oxo-4,5-dihydro-1,3,4-oxadiazol-2-yl)-3,3′-bipyridin-4-yl)-4-(trifluoromethyl)thiazole-5-carboxamide]
inhibition at 1 µM [1]: 93%

CCNC(=O)Nc1cc(-c2nc(C(F)(F)F)cs2)c(-c2nc(C)cc(-c3n[nH]c(=O)o3)n2)cn1 [Example 34, 1-ethyl-3-(5-(4-methyl-6-(5-oxo-4,5-dihydro-1,3,4-oxadiazol-2-yl)pyrimidin-2-yl)-4-(4-(trifluoromethyl)thiazol-2-yl)pyridin-2-yl)urea]
inhibition at 1 µM [1]: 93%

CCNC(=O)Nc1cc(-c2nc(-c3ccccc3)cs2)c(-c2cc(-c3nnc(C)o3)nc(N3CCOCC3)c2)cn1 [Example 89, 1-ethyl-3-(2′-(5-methyl-1,3,4-oxadiazol-2-yl)-6′-morpholino-4-(4-phenylthiazol-2-yl)-3,4′-bipyridin-6-yl)urea]
inhibition at 1 µM [1]: 87%

CCNC(=O)Nc1cc(-c2nc(C(F)(F)F)cs2)c(-c2cncc(-c3nnc(C)n3N)c2)cn1 [Example 283, 1-(5′-(4-amino-5-methyl-4H-1,2,4-triazol-3-yl)-4-(4-(trifluoromethyl)thiazol-2-yl)-3,3′-bipyridin-6-yl)-3-ethylurea]
inhibition at 1 µM [1]: 94%

CCNC(=O)Nc1cc(-c2nc(C(F)(F)F)cs2)c(-c2cc(-c3n[nH]c(=O)o3)cnc2OC[C@H](C)O)cn1 [Example 226]
inhibition at 1 µM [1]: 109%

CCNC(=O)Nc1cc(-c2nc(C(F)(F)F)cs2)c(-c2cc[n+]([O-])c(-c3nnc(C)o3)c2)cn1 [Example 259, 6-(3-ethylureido)-2′-(5-methyl-1,3,4-oxadiazol-2-yl)-4-(4-(trifluoromethyl)thiazol-2-yl)-3,4′-bipyridine 1′-oxide]
inhibition at 1 µM [1]: 95%

CCNC(=O)Nc1cc(-c2nc(C(F)(F)F)cs2)c(-c2cncc(-c3nn(C(=O)N4CCOCC4)c(=O)o3)c2)cn1 [Example 176]
inhibition at 1 µM [1]: 98%

CCNC(=O)Nc1cc(-c2nc(C(F)(F)F)cs2)c(-c2cc(-c3nnc(C)o3)cnc2OCC2CCOCC2)cn1 [Example 113, 1-Ethyl-3-{5′-(5-methyl-1,3,4-oxadiazol-2-yl)-2′-(tetrahydro-2H-pyran-4-ylmethoxy)-4-[4-(trifluoromethyl)-1,3-thiazol-2-yl]-3,3′-bipyridin-6-yl}urea]
inhibition at 1 µM [1]: 45%

CCNC(=O)Nc1cc(-c2nc(-c3ccccc3)cs2)c(-c2cncc(S(N)(=O)=O)c2)cn1 [Example 128]
inhibition at 1 µM [1]: 92%

CCNC(=O)Nc1cc(-c2nc(C(F)(F)F)c(CNC3CCCCC3)s2)c(-c2cncc(-c3nnc(C)o3)c2)cn1 [Example 56, 1-(4-(5-((cyclohexylamino)methyl)-4-(trifluoromethyl)thiazol-2-yl)-5′-(5-methyl-1,3,4-oxadiazol-2-yl)-3,3′-bipyridin-6-yl)-3-ethylurea]
inhibition at 1 µM [1]: 96%

CCNC(=O)Nc1cc(-c2nnc(-c3ccccc3)o2)c(-c2ncc(-c3n[nH]c(=O)o3)s2)cn1 [Example 194]
inhibition at 1 µM [1]: 101%

CCNC(=O)Nc1cc(-c2nc(C(F)(F)F)cs2)c(-c2cc(-c3nnc(C)o3)cnc2OC2CCNCC2)cn1 [Example 110, 1-Ethyl-3-{5′-(5-methyl-1,3,4-oxadiazol-2-yl)-2′-(piperidin-4-yloxy)-4-[4-(trifluoromethyl)-1,3-thiazol-2-yl]-3,3′-bipyridin-6-yl}urea]
inhibition at 1 µM [1]: 95%

CCNC(=O)Nc1cc(-c2nc(C(F)(F)F)cs2)c(-c2cncc(C(=N)N)c2)cn1 [Example 164, 6′-(3-Ethylureido)-4′-(4-(trifluoromethyl)thiazol-2-yl)-3,3′-bipyridine-5-carboximidamide]
inhibition at 1 µM [1]: 96%

CCNC(=O)Nc1cc(-c2nc(C(F)(F)F)cs2)c(-c2cncc(-c3nnc(C(C)(C)OC(C)=O)o3)c2)cn1 [Example 264, 2-(5-(6′-(3-ethylureido)-4′-(4-(trifluoromethyl)thiazol-2-yl)-3,3′-bipyridin-5-yl)-1,3,4-oxadiazol-2-yl)propan-2-yl acetate]
inhibition at 1 µM [1]: 98%

CCNC(=O)Nc1cc(-c2nc(C3CCCC3)cs2)c(-c2cncc(-c3nnc(C)o3)c2)cn1 [Example 235, 1-(4-(4-cyclopentylthiazol-2-yl)-5′-(5-methyl-1,3,4-oxadiazol-2-yl)-3,3′-bipyridin-6-yl)-3-ethylurea]
inhibition at 1 µM [1]: 101%

CCNC(=O)Nc1cc(-c2nc(C(F)(F)F)cs2)c(-c2cc(-c3nnc(C)o3)cnc2OC(C)CN(C)C)cn1 (stereo not shown) [Example 114, 1-(2′-(1-(Dimethylamino)propan-2-yloxy)-5′-(5-methyl-1,3,4-oxadiazol-2-yl)-4-(4-(trifluoromethyl)thiazol-2-yl)-3,3′-bipyridin-6-yl)-3-ethylurea]
inhibition at 1 µM [1]: 97%

CCNC(=O)Nc1cc(-c2nc(-c3cccnc3OCCOC)cs2)c(-c2cnc(OC)c(-c3n[nH]c(=O)o3)c2)cn1 [Example 207]
inhibition at 1 µM [1]: 101%

CCNC(=O)Nc1cc(-c2nc(C(F)(F)F)cs2)c(-c2cc(-c3n[nH]c(=O)o3)cnc2OCCN(C(C)C)C(C)C)cn1 [Example 120]
inhibition at 1 µM [1]: 118%
